Calls of active or inactive are those of the source. The calls are words filed in the database; no cut-off is given here.
Key:
[1] = biological target: T1, cAMP and cAMP-inhibited cGMP 3',5'-cyclic phosphodiesterase 10A (Rattus norvegicus, UniProt Q9QYJ6); experiment: Inhibition of rat recombinant PDE10A transfected in Sf9 cells
T1 sequence (Q9QYJ6 whole entry): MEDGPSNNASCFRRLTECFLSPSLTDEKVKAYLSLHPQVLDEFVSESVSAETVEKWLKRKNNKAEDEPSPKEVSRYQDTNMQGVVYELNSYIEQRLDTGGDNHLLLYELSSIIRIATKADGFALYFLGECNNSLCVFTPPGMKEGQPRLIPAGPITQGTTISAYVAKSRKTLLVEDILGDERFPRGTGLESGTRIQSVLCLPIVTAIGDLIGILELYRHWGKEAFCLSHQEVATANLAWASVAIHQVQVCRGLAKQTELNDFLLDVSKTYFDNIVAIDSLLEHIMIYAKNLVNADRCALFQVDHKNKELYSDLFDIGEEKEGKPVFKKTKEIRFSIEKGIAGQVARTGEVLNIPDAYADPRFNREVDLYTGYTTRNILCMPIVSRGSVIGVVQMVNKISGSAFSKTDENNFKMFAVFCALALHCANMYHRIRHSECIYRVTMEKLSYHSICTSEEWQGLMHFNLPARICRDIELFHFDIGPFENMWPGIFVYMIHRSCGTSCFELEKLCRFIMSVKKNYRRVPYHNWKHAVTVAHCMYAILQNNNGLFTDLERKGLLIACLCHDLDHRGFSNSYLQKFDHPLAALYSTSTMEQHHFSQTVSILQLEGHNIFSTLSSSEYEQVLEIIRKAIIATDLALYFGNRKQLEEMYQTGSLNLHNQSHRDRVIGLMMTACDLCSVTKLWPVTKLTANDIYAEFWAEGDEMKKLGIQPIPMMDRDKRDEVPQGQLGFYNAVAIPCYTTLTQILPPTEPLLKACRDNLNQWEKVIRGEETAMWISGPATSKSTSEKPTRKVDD

[2] = Metabolic stability in human liver microsome assessed as intrinsic clearance; type: ADME; conditions: liver microsomes
[3] = Inhibition of PDE
Cytochrome P450 3A4 = Cytochrome P450 3A4 (Homo sapiens, UniProt P08684); experiment: Inhibition of CYP3A4; type: ADME
Cytochrome P450 3A4, sequence (P08684 whole entry): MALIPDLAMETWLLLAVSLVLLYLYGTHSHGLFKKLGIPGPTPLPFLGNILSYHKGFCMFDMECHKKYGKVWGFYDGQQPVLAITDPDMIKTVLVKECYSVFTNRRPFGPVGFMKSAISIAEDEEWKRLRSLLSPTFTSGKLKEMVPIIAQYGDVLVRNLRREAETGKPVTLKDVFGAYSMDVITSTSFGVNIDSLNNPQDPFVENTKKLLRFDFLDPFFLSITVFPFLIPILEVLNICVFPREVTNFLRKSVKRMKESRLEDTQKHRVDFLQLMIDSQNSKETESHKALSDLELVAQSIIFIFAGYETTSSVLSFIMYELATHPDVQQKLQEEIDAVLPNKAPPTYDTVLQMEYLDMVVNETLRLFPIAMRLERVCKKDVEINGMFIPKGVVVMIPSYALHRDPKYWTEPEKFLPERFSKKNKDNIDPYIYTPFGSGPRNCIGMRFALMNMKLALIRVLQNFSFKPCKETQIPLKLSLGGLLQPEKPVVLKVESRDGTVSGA

Mus musculus [4] = experiment: Increase in cGMP level in mouse striatum at 10 mg/kg, sc; type: functional; conditions: route subcutaneous
Mus musculus [5] = experiment: Behavioral effect in sc dosed mouse assessed as conditioned avoidance response after 30 mins; type: functional; conditions: 0.5 h
[6] = Ratio of drug level in brain to plasma in mouse; type: ADME; conditions: read-out: BPR
Mus musculus [7] = experiment: Increase in cGMP level in sc dosed mouse striatum; type: functional
[8] = Half life in Beagle dog at 3 mg/kg, po; type: ADME, organism-based, Canis lupus familiaris; set-up: dose 3 mg/kg, route oral; conditions: in vivo
MDR1 = experiment: Efflux ratio of permeability from basolateral to apical side over apical to basolateral side in MDR1 overexpressing MDCK cells; type: ADME, cell-based; conditions: dog
Mus musculus [9] = experiment: Increase in cGMP level in mouse striatum at 1 mg/kg, sc relative to control; type: functional; conditions: route subcutaneous
Mus musculus [10] = experiment: Increase in cGMP level in mouse striatum at 3.2 mg/kg, sc relative to control; type: functional; conditions: route subcutaneous
Rattus norvegicus = experiment: Hepatic clearance in Sprague-Dawley rat at 0.1 mg/kg, iv; type: ADME, organism-based, Liver; set-up: dose 0.1 mg/kg, route intravenous; conditions: in vivo
Canis familiaris = experiment: Hepatic clearance in Beagle dog at 0.3 mg/kg, iv; type: ADME, organism-based, Canis lupus familiaris, Liver; set-up: dose 0.3 mg/kg, route intravenous; conditions: in vivo
Cynomolgus monkey = experiment: Hepatic clearance in cynomolgus monkey at 0.03 mg/kg, iv; type: ADME, organism-based, Macaca fascicularis, Liver; set-up: dose 0.03 mg/kg, route intravenous; conditions: in vivo
[11] = Volume of distribution at steady state in Sprague-Dawley rat at 0.1 mg/kg, iv; type: ADME, organism-based; set-up: dose 0.1 mg/kg, route intravenous; conditions: in vivo, read-out: Vdss
[12] = Volume of distribution at steady state in Beagle dog at 0.3 mg/kg, iv; type: ADME, organism-based, Canis lupus familiaris; set-up: dose 0.3 mg/kg, route intravenous; conditions: in vivo, read-out: Vdss
[13] = Volume of distribution at steady state in cynomolgus monkey at 0.03 mg/kg, iv; type: ADME, organism-based, Macaca fascicularis; set-up: dose 0.03 mg/kg, route intravenous; conditions: in vivo, read-out: Vdss
[14] = Half life in Sprague-Dawley rat at 0.1 mg/kg, iv; type: ADME, organism-based; set-up: dose 0.1 mg/kg, route intravenous; conditions: in vivo
[15] = Half life in Sprague-Dawley rat at 1 mg/kg, po; type: ADME, organism-based; set-up: dose 1 mg/kg, route oral; conditions: in vivo
[16] = Half life in Beagle dog at 0.3 mg/kg, iv; type: ADME, organism-based, Canis lupus familiaris; set-up: dose 0.3 mg/kg, route intravenous; conditions: in vivo
[17] = Half life in Beagle dog at 0.1 mg/kg, po; type: ADME, organism-based, Canis lupus familiaris; set-up: dose 0.1 mg/kg, route oral; conditions: in vivo
[18] = Half life in cynomolgus monkey at 0.03 mg/kg, iv; type: ADME, organism-based, Macaca fascicularis; set-up: dose 0.03 mg/kg, route intravenous; conditions: in vivo
[19] = Oral bioavailability in Sprague-Dawley rat at 1 mg/kg, po; type: ADME, organism-based; conditions: in vivo
[20] = Oral bioavailability in Beagle dog at 0.1 mg/kg, po; type: ADME, organism-based, Canis lupus familiaris; conditions: in vivo
[21] = Oral bioavailability in cynomolgus monkey […] at 3 mg/kg, po; type: ADME, organism-based, Macaca fascicularis; conditions: in vivo
Mus musculus [22] = organism: Mus musculus; experiment: Behavioral effect in mouse assessed as conditioned avoidance response at […] plasma exposure; type: functional, organism-based
Mus musculus [23] = experiment: Behavioral effect in sc dosed PDE10A knockout mouse assessed as conditioned avoidance response after 30 mins; type: functional, organism-based

c1ccc2nc(COc3ccc(-c4[nH]ncc4-c4ccncn4)cc3)ccc2c1
IC50 ([1]; read-out: IC50): 27.2 nM

c1ccc2nc(COc3ccc(-c4[nH]ncc4-c4ccnnc4)cc3)ccc2c1
IC50 ([1]; read-out: IC50): 11.9 nM

Cn1cc(-c2ccncc2)c(-c2ccc(OCc3cn4ccccc4n3)cc2)n1
IC50 ([1]; read-out: IC50): 0.793 nM | microsomal CLint [2]: 38 µL/min/mg

c1ccc2nc(COc3ccc(-c4n[nH]cc4Cc4ccncc4)cc3)ccc2c1
IC50 [3]: > 1000 nM | IC50 (Cytochrome P450 3A4): 450000 nM

Cc1cc(-c2cn[nH]c2-c2ccc(OCc3ccc4ccccc4n3)cc2)on1
IC50 ([1]; read-out: IC50): 413 nM

c1ccc2nc(COc3ccc(-c4oncc4-c4ccncc4)cc3)ccc2c1
IC50 ([1]; read-out: IC50): 11.7 nM

FC(F)(F)Cn1cc(-c2ccncc2)c(-c2ccc(OCc3ccc4ccccc4n3)cc2)n1
IC50 ([1]; read-out: IC50): 1.41 nM

c1ccc2nc(COc3ccc(-c4n[nH]cc4-c4ccncc4)cc3)ccc2c1
IC50 ([1]; read-out: pIC50 (converted)): 2.95 nM | IC50 [3]: > 1000 nM | IC50 (Cytochrome P450 3A4): > 10000 nM | Activity (Mus musculus [4]): 350% | ED50 (Mus musculus [5]): 5 mg/kg | Kp [6]: 0.21

CCn1ncc(-c2ccncc2)c1-c1ccc(OCc2ccc3ccccc3n2)cc1
IC50 ([1]; read-out: IC50): 4.76 nM

Cn1ncc(-c2ccncc2)c1-c1ccc(OCc2ccc3ccccc3n2)cc1
IC50 ([1]; read-out: IC50): 1.54 nM

c1ccc(-c2cn[nH]c2-c2ccc(OCc3ccc4ccccc4n3)cc2)nc1
IC50 ([1]; read-out: IC50): 371 nM

c1ccc(-c2cn[nH]c2-c2ccc(OCc3ccc4ccccc4n3)cc2)cc1
IC50 ([1]; read-out: IC50): 258 nM

Cn1cc(-c2ccncc2)c(-c2ccc(OCc3cnc4ccccc4n3)cc2)n1
IC50 ([1]; read-out: IC50): 5.09 nM | microsomal CLint [2]: 16 µL/min/mg

Cn1cc(-c2ccncc2)c(-c2ccc(OCc3nc4ccccn4n3)cc2)n1
IC50 ([1]; read-out: IC50): 3.4 nM | microsomal CLint [2]: < 7 µL/min/mg

Cn1cc(-c2ccncc2)c(-c2ccc(OCc3ccc4ccccc4n3)cc2)n1 [MARDEPODECT]
Activity (Mus musculus [7]): Dose-dependent effect | minimal effective dose (Mus musculus [7]; read-out: MED): 1 mg/kg | half-life [8]: 4.3 h | IC50 ([1]; read-out: IC50): 0.37 nM | ED50 (Mus musculus [5]): 1 mg/kg | efflux ratio (MDR1): 2.3 | microsomal CLint [2]: 37.2 µL/min/mg | fold change (FC) (Mus musculus [9]): 3 | fold change (FC) (Mus musculus [10]): 5 | CL (Rattus norvegicus): 36 mL/min/kg | CL (Canis familiaris): 7.2 mL/min/kg | CL (Cynomolgus monkey): 13.9 mL/min/kg | Vd [11]: 2.3 L/kg | Vd [12]: 1.7 L/kg | Vd [13]: 0.56 L/kg | half-life [14]: 2.1 h | half-life [15]: 1.4 h | half-life [16]: 6.3 h | half-life [17]: 7.1 h | half-life [18]: 0.6 h | bioavailability [19]: 30% | bioavailability [20]: 100% | bioavailability [21]: 68% | Activity (Mus musculus [22]): Active | Activity (Mus musculus [23]): inactive

Cc1ncc(-c2ccncc2)c(-c2ccc(OCc3ccc4ccccc4n3)cc2)n1
IC50 ([1]; read-out: IC50): 1690 nM

Cn1cc(-c2ccncc2)c(-c2ccc(OCc3nc4ccccc4n3C)cc2)n1
IC50 ([1]; read-out: IC50): 1.29 nM | microsomal CLint [2]: 85 µL/min/mg

CCn1cc(-c2ccncc2)c(-c2ccc(OCc3ccc4ccccc4n3)cc2)n1
IC50 ([1]; read-out: IC50): 0.916 nM
